17 molecules from PubChem BioAssay (NCI) can be followed below.

Among the test systems are HOP-62 NSCLC; SNB-75 CNS; SF-295 CNS; TK-10 renal; HCT-15 colon; OVCAR-3 ovarian; KM12 colon; HL-60(TB) leukemia; PC-3 prostate; DU-145 prostate.
Holding throughout (experiment): growth of human tumour cells (NCI), 48 h

SMILES strings stand for the structures.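 Where inhibition never reached the appropriate level, the endpoint shown equals the highest concentration tested. Otherwise, values were interpolated linearly from a five-concentration, 48-hour dose response in 96-well plates. GI50 is the concentration that inhibits growth by half. TGI: total growth inhibition.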

Regarding `COc1ccc2c3c(c(C(=O)O)oc13)C(CCC(=O)O)CC2` (configuration not stated), the TGI with HOP-62 NSCLC, in the assay with SNB-75 CNS, in the assay with SF-295 CNS, in the assay with TK-10 renal, with HCT-15 colon and with OVCAR-3 ovarian was more than 100 µM in each case.
Take `NNC(=O)N/N=C1\CNC(=O)C(=O)C1c1nc2ccccc2s1` (configuration not stated): the TGI in the assay with HOP-62 NSCLC, in the assay on SNB-75 CNS, with SF-295 CNS, with TK-10 renal, in the assay with KM12 colon and with HL-60(TB) leukemia was more than 100 µM in each case. In addition, the TGI in the assay on HCT-15 colon and in the assay on OVCAR-3 ovarian was more than 100 µM in each case.
For the molecule `O=c1c2cccc3cccc(c4n1CCCN=4)c32`, the TGI in the assay with HOP-62 NSCLC, with SNB-75 CNS, in the assay with SF-295 CNS, in the assay with TK-10 renal, with KM12 colon and in the assay with HL-60(TB) leukemia was more than 100 µM throughout. The TGI in the assay on HCT-15 colon and in the assay on OVCAR-3 ovarian was more than 100 µM throughout.
For `CC(C)(C)c1cc(C(OCCl)(C(F)(F)F)C(F)(F)F)c2c(c1)C(C(F)(F)F)(C(F)(F)F)OC21c2ccccc2C(=O)c2ccccc21`, the TGI with SNB-75 CNS, in the assay on SF-295 CNS, in the assay on TK-10 renal, in the assay on KM12 colon, with HCT-15 colon and in the assay on OVCAR-3 ovarian was more than 100 µM in each case.
With `Cc1c(C)c2ccc(OC(C)C(=O)O)cc2oc1=O` (configuration not stated), the TGI in the assay with HOP-62 NSCLC, in the assay on SNB-75 CNS, with SF-295 CNS, in the assay on TK-10 renal, with KM12 colon and in the assay on HL-60(TB) leukemia was more than 100 µM throughout. For the same molecule, in the assay with OVCAR-3 ovarian, the TGI is more than 100 µM.
In the case of `Cc1csc(CCC(N)C(=O)O)n1` (configuration not stated), the TGI with SNB-75 CNS, in the assay with SF-295 CNS, in the assay with TK-10 renal, in the assay with KM12 colon, in the assay with HCT-15 colon and in the assay with OVCAR-3 ovarian was more than 100 µM each time.
With `O=S(=O)(Cc1ccccc1)SCc1ccccc1`, the TGI in the assay on HOP-62 NSCLC was more than 100 µM; with SNB-75 CNS, more than 100 µM; in the assay on SF-295 CNS, 65.7 µM; with TK-10 renal, 99.2 µM; in the assay with KM12 colon, more than 100 µM; with HL-60(TB) leukemia it was 21.5 µM. The TGI came to 40.2 µM in the assay on HCT-15 colon and 58.5 µM with OVCAR-3 ovarian.
As for `O=c1[nH]c(=O)n(C2CC(O)C(O)C(CO)O2)cc1F` (configuration not stated), the TGI with HOP-62 NSCLC, in the assay with SNB-75 CNS, in the assay on SF-295 CNS, in the assay with TK-10 renal, with KM12 colon and with HL-60(TB) leukemia was more than 100 µM in each case. In addition, the TGI in the assay with HCT-15 colon and in the assay on OVCAR-3 ovarian was more than 100 µM in each case.
`O=C1c2ccoc2C(=O)c2oc(=O)ccc21`: the TGI in the assay with HOP-62 NSCLC is more than 61.1 µM; with SNB-75 CNS it was 15.6 µM; in the assay with SF-295 CNS it was 31.5 µM; in the assay on TK-10 renal, more than 59.1 µM; with KM12 colon, more than 57.7 µM; in the assay on HL-60(TB) leukemia, 6.8 µM. Further, the figures for the TGI in the assay with HCT-15 colon and in the assay on OVCAR-3 ovarian were 24.9 µM and 8.69 µM, respectively.
In the case of `CN1CCOCCOCCOc2ccccc2NC(=O)c2nc(cnc2N)-c2ccc(cc2)S1(=O)=O`, the GI50 with HOP-62 NSCLC is 14.7 µM; with SNB-75 CNS, 2.85 µM; in the assay with SF-295 CNS, 4.52 µM; in the assay on TK-10 renal, 11.3 µM; in the assay on PC-3 prostate, more than 100 µM. Moreover, the TGI is 46.2 µM with HOP-62 NSCLC; 17.7 µM with SNB-75 CNS; more than 100 µM with SF-295 CNS; 49.4 µM in the assay on TK-10 renal; more than 100 µM in the assay on PC-3 prostate.
Take `Nc1nc(-c2ccccc2)cc(-c2cc(Cl)ccc2O)n1`: the TGI in the assay on HOP-62 NSCLC is 85.5 µM; with SNB-75 CNS, 69 µM; with SF-295 CNS, more than 100 µM; in the assay with TK-10 renal, more than 100 µM; in the assay on KM12 colon, more than 100 µM; in the assay on HL-60(TB) leukemia it was more than 100 µM. In addition, the TGI with HCT-15 colon was more than 100 µM; in the assay with OVCAR-3 ovarian it was 94.4 µM.
`NC(=O)C(=O)Cc1nc2ccccc2s1`: the TGI in the assay on HOP-62 NSCLC, in the assay on SNB-75 CNS, in the assay with SF-295 CNS, in the assay with TK-10 renal, in the assay with KM12 colon and with HL-60(TB) leukemia was more than 100 µM each time. The TGI in the assay on HCT-15 colon and with OVCAR-3 ovarian was more than 100 µM in each case.
For the molecule `O=C(Nc1ccc(Br)cc1)Nc1cccc(Br)c1`, the GI50 is 7.24 µM with HOP-62 NSCLC, 5.8 µM in the assay on DU-145 prostate and 10.2 µM in the assay with SNB-75 CNS. In addition, the figures for the TGI in the assay on HOP-62 NSCLC, in the assay on DU-145 prostate and with SNB-75 CNS were more than 100 µM, more than 100 µM and 63 µM, respectively.
For `CCN(CC)CCCNc1c2ccc(Cl)cc2nc2ccc(OC)cc12`, the GI50 is 0.0476 µM in the assay on DU-145 prostate, 1.69 µM with TK-10 renal, 0.0541 µM with KM12 colon and 0.0345 µM in the assay with HCT-15 colon. For the same molecule, the TGI in the assay on DU-145 prostate was 4.08 µM; with TK-10 renal it was 4.83 µM; with KM12 colon, 4.45 µM; in the assay with HCT-15 colon, 2.51 µM.
Regarding `CC(=O)c1c(O)c2c([nH]c1=O)CCCC2`, the TGI in the assay with HOP-62 NSCLC is 46.5 µM; in the assay on SNB-75 CNS it was 29 µM; in the assay on SF-295 CNS, 39.7 µM; in the assay with TK-10 renal it was more than 100 µM; with HL-60(TB) leukemia, more than 100 µM; in the assay with HCT-15 colon, more than 100 µM. The same molecule registered a TGI with OVCAR-3 ovarian of more than 100 µM.
As for `O=C(O)C1=C(C(=O)O)Oc2ccccc2O1`, the TGI in the assay with HOP-62 NSCLC, in the assay on SNB-75 CNS, with SF-295 CNS, with TK-10 renal, in the assay with KM12 colon and with HL-60(TB) leukemia was more than 100 µM each time. Further, the TGI in the assay on HCT-15 colon and in the assay with OVCAR-3 ovarian was more than 100 µM in each case.
On to `O=C(CCC(=O)C1Cc2ccccc2C1=O)Nc1cccc(C(F)(F)F)c1` (configuration not stated), for which the TGI in the assay on HOP-62 NSCLC, in the assay with SF-295 CNS, in the assay on TK-10 renal, in the assay on KM12 colon, with HL-60(TB) leukemia and with HCT-15 colon was more than 100 µM throughout. Further, the TGI in the assay on OVCAR-3 ovarian is more than 100 µM.
